Measured values taken from patent publication US20240417370A1, “LIPIDS FOR USE IN LIPID NANOPARTICLE FORMULATIONS” (Acuitas Therapeutics, Inc., priority 2023, published 2024).

Experiments:
[1] = test system: luciferase expression in the liver; assay: Luciferase mRNA in vivo evaluation using lipid nanoparticle compositions; parameters: species or system mice; conditions: LNP-formulated lipid, tail vein injection, ng luciferase/g liver 4 hours after administration; for Liver Luc @ 0.3 mg/kg: 0.3 mg mRNA/kg; for Liver Luc @ 1.0 mg/kg: 1.0 mg mRNA/kg
Procedure: (§1) A lipid of structure (I), DSPC, cholesterol and PEG-lipid are solubilized in ethanol at a molar ratio of 50:10:38.5:1.5 or 47.5:10:40.7:1.8. Lipid nanoparticles (LNP) are prepared at a total lipid to mRNA weight ratio of approximately 10:1 to 40:1. Briefly, the mRNA is diluted to 0.2 mg/mL in 10 to 50 mM citrate buffer, pH 4 to 6 or 10 to 25 mM acetate buffer, pH 4. Syringe pumps are used to mix the ethanolic lipid solution with the mRNA aqueous solution at a ratio of about 1:5 to 1:3 (vol/vol) with total flow rates above 15 mL/min. The ethanol is then removed, and the external buffer replaced with PBS by dialysis. Finally, the lipid nanoparticles are filtered through a 0.2 µm pore sterile filter.
Studies are performed in 6-8-week-old female C57BL/6 mice (Charles River) 8-10-week-old CD-1 mice (Charles River or Inotiv) according to guidelines established by an institutional animal care committee (ACC) and the Canadian Council on Animal Care (CCAC). Varying doses of mRNA-lipid nanoparticle are systemically administered by tail vein injection and animals euthanized at a specific time point (e.g., 4 hours) post-administration. Liver and spleen are collected in pre-weighed tubes, weights determined, immediately snap frozen in liquid nitrogen, and stored at −80° C. until processing for analysis.
For liver, approximately 50 mg is dissected for analyses in a 2 mL FastPrep tubes (MP Biomedicals, Solon OH). ¼″ ceramic sphere (MP Biomedicals) is added to each tube and 500-750 μL of Glo Lysis Buffer—GLB (Promega, Madison WI) equilibrated to room temperature is added to liver tissue. Liver tissues are homogenized with the FastPrep24 instrument (MP Biomedicals) at 2×6.0 m/s for 15 seconds. Homogenate is incubated at room temperature for 5 minutes prior to a 1:4 to 1:6 dilution in GLB and assessed using SteadyGlo Luciferase assay system (Promega). Specifically, 50 μL of diluted tissue homogenate is reacted with 50 μL of SteadyGlo substrate, shaken for 10 seconds followed by 5-minute incubation and then luminescence was quantitated using a FilterMax F5 Microplate Reader (Molecular Devices, USA). The amount of protein assayed is determined by using the BCA protein assay kit (Pierce, Rockford, IL). Relative luminescence units (RLU) were then normalized to total μg protein or weight (g) of tissue assayed. To convert RLU to ng luciferase a standard curve is generated with QuantiLum Recombinant Luciferase (Promega).
The FLuc mRNA (L-7202) from Trilink Biotechnologies will express a luciferase protein, originally isolated from the firefly, Photinus pyralis. Flue is commonly used in mammalian cell culture to measure both gene expression and cell viability. It emits bioluminescence in the presence of the substrate, luciferin. This capped and polyadenylated mRNA is modified with 5-methoxyuridine and optimized for mammalian systems.
(§2) Representative compounds of the disclosure shown in Table 2 were formulated using the following molar ratio: 50% cationic lipid/10% distearoylphosphatidylcholine (DSPC)/38.5% Cholesterol/1.5% PEG lipid 2-[2-(ω-methoxy(polyethyleneglycol2000)ethoxy]-N,N-ditetradecylacetamide) or 47.5% cationic lipid/10% DSPC/40.7% Cholesterol/1.8% PEG lipid. Relative activity was determined by measuring luciferase expression in the liver 4 hours following administration via tail vein injection as described in Example 1 or by measuring the amount of human IgG in mouse serum as described in example 2. The activity was compared at a dose of 1.0 or 0.5 or 0.3 mg mRNA/kg and expressed as ng luciferase/g liver measured 4 hours after administration, as described in Example 1 or as μg IgG/mL serum measured 24 hours after administration, as described in Example 2. Compound numbers in Table 2 refer to the compound numbers of Table 1.

[2] = test system: human IgG in mouse serum; assay: Immunoglobulin G (IgG) mRNA in vivo evaluation using lipid nanoparticle compositions; parameters: species or system mice; conditions: LNP-formulated lipid, tail vein injection, μg IgG/mL serum 24 hours after administration; for Serum IgG @ 0.3 mg/kg: 0.3 mg mRNA/kg; for Serum IgG @ 1.0 mg/kg: 1.0 mg mRNA/kg
Procedure: as §1, with “4 to 6.” for “4.”
Studies are performed in 6-8-week-old CD-1/ICR mice (Envigo, Charles River, or Inotiv) according to guidelines established by an institutional animal care committee (ACC) and the Canadian Council on Animal Care (CCAC). Varying doses of mRNA-lipid nanoparticle are systemically administered by tail vein injection and animals euthanized at a specific time point (e.g., 24 hours) post-administration. The whole blood is collected, and the serum subsequentially separated by centrifuging the tubes of the whole blood at 2000×g for 10 minutes at 4° C. and stored at −80° C. until use for analysis.
For immunoglobulin G (IgG) ELISA (Life Diagnostics Human IgG ELISA kit), the serum samples are diluted at 100 to 20,000 folds with 1× diluent solution. 100 μL of diluted serum is dispensed into anti-human IgG coated 96-well plate in duplicate alongside human IgG standards and incubated in a plate shaker at 150 rpm at 25° C. for 45 minutes. The wells are washed 5 times with 1× wash solution using a plate washer (400 μL/well). 100 μL of HRP conjugate is added into each well and incubated in a plate shaker at the same condition above. The wells are washed 5 times again with 1× wash solution using a plate washer (400 μL/well). 100 μL of TMB reagent is added into each well and incubated in a plate shaker at the same condition above. The reaction is stopped by adding 100 μL of Stop solution to each well. The absorbance is read at 450 nm (A450) with a microplate reader. The amount of human IgG in mouse serum is determined by plotting A450 values for the assay standard against human IgG concentration.
as §2

CCCCCCCCCCN(CCCCCCCCCC)C(=O)CCCCCCCN(CCCCCCCC(=O)N(CCCCCCCCCC)CCCCCCCCCC)C[C@H]1C[C@@H](O)C1 [(1S, 3S) I-2, 8,8′-((((1S,3S)-3-hydroxycyclobutyl)methyl)azanediyl)bis(N,N-didecyloctanamide)]
Liver Luc @ 0.3 mg/kg [1]: 10872 ± 2411 ng/g
Liver Luc @ 1.0 mg/kg [1]: 91854 ± 15303 ng/g

CCCCCCCCCCN(CCCCCCCCCC)C(=O)CCCCCCCN(CCCCCCCC(=O)N(CCCCCCCCCC)CCCCCCCCCC)C[C@H]1C[C@H](O)C1 [(1R, 3R) I-2, 8,8′-((((1R,3R)-3-hydroxycyclobutyl)methyl)azanediyl)bis(N,N-didecyloctanamide)]
Liver Luc @ 0.3 mg/kg [1]: 12651 ± 3017 ng/g
Liver Luc @ 1.0 mg/kg [1]: 82113 ± 14450 ng/g

CCCCCCCCCCN(CCCCCCCCCC)C(=O)CCCCCCCN(CCCCCCCC(=O)N(CCCCCCCCCC)CCCCCCCCCC)CC[C@H]1C[C@@H](O)C1 [(1S, 3R) I-1, 8,8′-((2-((1S,3R)-3-hydroxycyclobutyl)ethyl)azanediyl)bis(N,N-didecyloctanamide)]
Liver Luc @ 0.3 mg/kg [1]: 18927 ± 2102 ng/g
Liver Luc @ 1.0 mg/kg [1]: 79233 ± 12026 ng/g

CCCCCCCCCCN(CCCCCCCCN(CCCCCCCC(=O)N(CCCCCCCCCC)CCCCCCCCCC)C[C@H]1C[C@@H](O)C1)C(=O)CCCCCCCCC [(1S, 3S) I-21, N-decyl-N-(8-((8-(didecylamino)-8-oxooctyl)(((1S,3S)-3-hydroxycyclobutyl)methyl)amino)octyl)decanamide]
Serum IgG @ 0.3 mg/kg [2]: 71.49 ± 12.31 µg/mL

CCCCCCCCCCN(CCCCCCCCN(CCCCCCCCN(CCCCCCCCCC)C(=O)CCCCCCCCC)C[C@H]1C[C@@H](O)C1)C(=O)CCCCCCCCC [(1S, 3S) I-22, N,N′-(((((1S,3S)-3-hydroxycyclobutyl)methyl)azanediyl)bis(octane-8,1-diyl))bis(N-decyldecanamide)]
Serum IgG @ 0.3 mg/kg [2]: 50.48 ± 11.93 µg/mL

CCCCCCCCCCN(CCCCCCCCCC)C(=O)CCCCCCCN(CCCCCCCC(=O)N(CCCCCCCCCC)CCCCCCCCCC)C[C@H]1C[C@H]1CO (racemic) [(rac)-(1RS, 2SR) I-45, 8,8′-((((1s,2r)-2-(hydroxymethyl)cyclopropyl)methyl)azanediyl)bis(N,N-didecyloctanamide)]
Serum IgG @ 0.3 mg/kg [2]: 15.84 ± 3.20 µg/mL

CCCCCCCCCCN(CCCCCCCCCC)C(=O)CCCCCCCN(CCCCCCCC(=O)N(CCCCCCCCCC)CCCCCCCCCC)[C@@H]1CCC[C@H]1O [(1R, 2R) I-48, 8,8′-(((1r,2r)-2-hydroxycyclopentyl)azanediyl)bis(N,N-didecyloctanamide)]
Serum IgG @ 0.3 mg/kg [2]: 25.27 ± 7.50 µg/mL
Serum IgG @ 1.0 mg/kg [2]: 92.5 ± 20.18 µg/mL

CCCCCCCCCCN(CCCCCCCCN(CCCCCCCCN(CCCCCCCCCC)C(=O)CCCCCCCCC)C[C@H]1C[C@H](O)C1)C(=O)CCCCCCCCC [(1R, 3R) I-22, N,N′-(((((1R,3R)-3-hydroxycyclobutyl)methyl)azanediyl)bis(octane-8,1-diyl))bis(N-decyldecanamide)]
Serum IgG @ 0.3 mg/kg [2]: 19.88 ± 2.53 µg/mL

CCCCCCCCCCN(CCCCCCCCN(CCCCCCCC(=O)N(CCCCCCCCCC)CCCCCCCCCC)[C@H]1CC[C@@H](O)CC1)C(=O)CCCCCCCCC [(1S, 4S) I-47, N-decyl-N-(8-((8-(didecylamino)-8-oxooctyl)((1s,4s)-4-hydroxycyclohexyl)amino)octyl)decanamide]
Serum IgG @ 0.3 mg/kg [2]: 55.53 ± 11.50 µg/mL
Serum IgG @ 1.0 mg/kg [2]: 158.59 ± 40.38 µg/mL

CCCCCCCCCCN(CCCCCCCCCC)C(=O)CCCCCCCN(CCCCCCCC(=O)N(CCCCCCCCCC)CCCCCCCCCC)[C@H]1CCCC[C@H]1O [(1S, 2R) I-16, 8,8′-(((1S,2R)-2-hydroxycyclohexyl)azanediyl)bis(N,N-didecyloctanamide)]
Serum IgG @ 0.3 mg/kg [2]: 19.42 ± 7.21 µg/mL
Serum IgG @ 1.0 mg/kg [2]: 88.40 ± 26.36 µg/mL

CCCCCCCCCCCCN(CCCCCCCC)C(=O)CCCCCCCN(CCCCCCCC(=O)N(CCCCCCCC)CCCCCCCCCCCC)[C@H]1CC[C@@H](O)CC1 [(1S, 4S) I-62, 8,8′-(((1s,4s)-4-hydroxycyclohexyl)azanediyl)bis(N-dodecyl-N-octyloctanamide)]
Serum IgG @ 0.3 mg/kg [2]: 48.49 ± 8.83 µg/mL

C=CCCCCCCCCN(CCCCCCCCCC)C(=O)CCCCCCCN(CCCCCCCC(=O)N(CCCCCCCCC=C)CCCCCCCCCC)[C@H]1CC[C@@H](O)CC1 [(1S, 4S) I-51, 8,8′-(((1s,4s)-4-hydroxycyclohexyl)azanediyl)bis(N-(dec-9-en-1-yl)-N-decyloctanamide)]
Serum IgG @ 0.3 mg/kg [2]: 80.37 ± 26.77 µg/mL
